From patent US9695152B2, “3,4-dihydro-2H-isoquinoline-1-one and 2,3-dihydro-isoindol-1-one compounds” (Hoffmann-La Roche Inc., priority 2013, dated 2017)

Assays:
CYP11B2 = CYP11B2 (Homo sapiens (Human), UniProt P19099); experiment: G-402 cellular enzyme assay, human CYP11B2 (aldosterone release, HTRF); assay type: cell-based; conditions: G-402 cells expressing human CYP11B2, 1 μM Deoxycorticosterone
Source text: (§1) Herein we identified the use of the G-402 cell line as a host cell to ectopically express (transiently or stably) enzymes of the CYP11 family. Specifically we developed stable G-402 cells expressing ectopically human CYP11B1, human CYP11B2, human CYP11A1, cynmolgus CYP11B1 or cynomolgus CYP11B2 enzyme activity. Importantly the identified cell line G-402 expresses co-factors (adrenodoxin and adrenodoxin reductase) important for the activity of the CYP11 family and no relevant enzyme activity of the CYP11 family (in comparison to H295R cells) was detected in these cells. Therefore the G-402 cell line is uniquely suited as a host cell for the ectopic expression of enzymes from the CYP11 family.
(§2) G-402 cells can be obtained from ATCC (CRL-1440) and were originally derived from a renal leiomyoblastoma.
(§3) The expression plasmids contains the ORF for either human/cyno CYP11B1 or CYP11B2 under the control of a suitable promoter (CMV-promoter) and a suitable resistance marker (neomycin). Using standard techniques the expression plasmid is transfected into G-402 cells and these cells are then selected for expressing the given resistance markers. Individual cell-clones are then selected and assessed for displaying the desired enzymatic activity using 11-Deoxycorticosterone (Cyp11B2) or 11-Deoxycortisol (Cyp11B1) as a substrate.
(§4) G-402 cells expressing CYP11 constructs were established as described above and maintained in McCoy's 5a Medium Modified, ATCC Catalog No. 30-2007 containing 10% FCS and 400 μg/ml G418 (Geneticin) at 37° C. under an atmosphere of 5% CO2/95% air. Cellular enzyme assays were performed in DMEM/F12 medium containing 2.5% charcoal treated FCS and appropriate concentration of substrate (0.3-10 uM 11-Deoxycorticosterone, 11-Deoxycortisol or Corticosterone). For assaying enzymatic activity, cells were plated onto 96 well plates and incubated for 16 h. An aliquot of the supernatant is then transferred and analyzed for the concentration of the expected product (Aldosterone for CYP11B2; Cortisol for CYP11B1). The concentrations of these steroids can be determined using HTRF assays from CisBio analyzing either Aldosterone or Cortisol.
(§5) Inhibition of the release of produced steroids can be used as a measure of the respective enzyme inhibition by test compounds added during the cellular enzyme assay. The dose dependent inhibition of enzymatic activity by a compound is calculated by means of plotting added inhibitor concentrations (x-axes) vs. measured steroid/product level (y-axes). The inhibition is then calculated by fitting the following 4-parameter sigmoidal function (Morgan-Mercer-Flodin (MMF) model) to the raw data points using the least squares method:
(§6) [formula] wherein, A is the maximum y value, B is the EC50 factor determined using XLFit, C is the minimum y value and D is the slope value.
(§7) EC50 values for compounds claimed herein were tested with the G402-based assay system described. Cyp11B2 enzyme activity was tested in presence of 1 μM Deoxycorticosterone and variable amounts of inhibitors; Cyp11B1 enzyme activity was tested in presence of 1 μM Deoxycortisol and variable amounts of inhibitors.

human CYP11B1 = human CYP11B1 (Homo sapiens (Human), UniProt P15538); experiment: G-402 cellular enzyme assay, human CYP11B1 (cortisol release, HTRF); assay type: cell-based; conditions: G-402 cells expressing human CYP11B1, 1 μM Deoxycortisol
Source text: as §1, §2, §3, §4, §5, §6, §7

Chain of CYP11B2 (P19099 25-503): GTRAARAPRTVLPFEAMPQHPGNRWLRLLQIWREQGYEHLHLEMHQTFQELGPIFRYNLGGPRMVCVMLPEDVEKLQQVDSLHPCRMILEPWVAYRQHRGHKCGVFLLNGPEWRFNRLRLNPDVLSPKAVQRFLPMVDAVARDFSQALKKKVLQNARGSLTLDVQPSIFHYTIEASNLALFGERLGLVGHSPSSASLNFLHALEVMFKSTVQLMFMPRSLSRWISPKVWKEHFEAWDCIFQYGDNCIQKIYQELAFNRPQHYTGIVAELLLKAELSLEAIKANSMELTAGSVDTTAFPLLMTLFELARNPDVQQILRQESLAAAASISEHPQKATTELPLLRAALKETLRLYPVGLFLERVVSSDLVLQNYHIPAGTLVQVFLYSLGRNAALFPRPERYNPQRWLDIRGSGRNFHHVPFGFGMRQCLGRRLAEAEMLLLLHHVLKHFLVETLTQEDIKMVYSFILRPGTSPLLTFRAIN
Chain of human CYP11B1 (P15538 25-503): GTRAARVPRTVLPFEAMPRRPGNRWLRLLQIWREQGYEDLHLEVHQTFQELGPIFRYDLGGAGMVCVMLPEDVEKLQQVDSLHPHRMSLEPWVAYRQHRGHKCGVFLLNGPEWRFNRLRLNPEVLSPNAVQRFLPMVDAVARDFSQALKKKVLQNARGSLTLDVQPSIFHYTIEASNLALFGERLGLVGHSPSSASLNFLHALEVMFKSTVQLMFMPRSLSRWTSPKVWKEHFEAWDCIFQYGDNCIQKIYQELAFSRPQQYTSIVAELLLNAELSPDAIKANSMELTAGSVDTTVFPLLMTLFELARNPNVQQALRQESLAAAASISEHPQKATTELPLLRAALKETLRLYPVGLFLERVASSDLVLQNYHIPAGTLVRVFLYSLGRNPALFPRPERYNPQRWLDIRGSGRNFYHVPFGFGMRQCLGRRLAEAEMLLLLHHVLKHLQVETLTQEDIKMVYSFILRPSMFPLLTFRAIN

| EC50 (CYP11B2) [nM] | EC50 (human CYP11B1) [nM] | Compound |
| --- | --- | --- |
| 7 | 4360 | Cc1ccncc1C(=O)N1CC(Nc2cncc(N3C(=O)c4ccc(Cl)cc4[C@H]3C)c2)C1 (single isomer, unassigned) [Example 25, (3R or 3S)-5-Chloro-3-methyl-2-[5-[[1-(4-methylpyridine-3-carbonyl)azetidin-3-yl]amino]-3-pyridyl]isoindolin-1-one] |
| 16 | 1910 | Cc1ccncc1C(=O)N1CC(Nc2cncc(N3C(=O)c4ccc(Cl)cc4[C@H]3C)c2)C1 (single isomer, unassigned) [Example 26, (3S or 3R)-5-Chloro-3-methyl-2-[5-[[1-(4-methylpyridine-3-carbonyl)azetidin-3-yl]amino]-3-pyridyl]isoindolin-1-one] |
| 20 | 1130 | C[C@@H]1c2cc(Cl)ccc2C(=O)N1c1cncc(NC2CN(C(=O)c3ncccc3Cl)C2)c1 (single isomer, unassigned) [Example 27, (3R or 3S)-5-Chloro-2-[5-[[1-(3-chloropyridine-2-carbonyl)azetidin-3-yl]amino]-3-pyridyl]-3-methyl-isoindolin-1-one] |
| 27 | 533 | C[C@H]1c2cc(Cl)ccc2C(=O)N1c1cncc(NC2CN(C(=O)c3ncccc3Cl)C2)c1 (single isomer, unassigned) [Example 28, (3S or 3R)-5-Chloro-2-[5-[[1-(3-chloropyridine-2-carbonyl)azetidin-3-yl]amino]-3-pyridyl]-3-methyl-isoindolin-1-one] |
| 29 | 5810 | C[C@@H]1c2cc(Cl)ccc2C(=O)N1c1cncc(NC2CN(S(=O)(=O)C3CC3)C2)c1 (single isomer, unassigned) [Example 29, (3R or 3S)-5-Chloro-2-[5-[(1-cyclopropylsulfonylazetidin-3-yl)amino]-3-pyridyl]-3-methyl-isoindolin-1-one] |
| 18 | 652 | C[C@@H]1c2cc(Cl)ccc2C(=O)N1c1cncc(NC2CN(S(=O)(=O)C3CC3)C2)c1 (single isomer, unassigned) [Example 30, (3S or 3R)-5-Chloro-2-[5-[(1-cyclopropylsulfonylazetidin-3-yl)amino]-3-pyridyl]-3-methyl-isoindolin-1-one] |
| 2 | 56 | CN(c1cncc(N2C(=O)c3ccc(Cl)cc3C2(C)C)c1)C1CCN(S(=O)(=O)C2CC2)C1 (single isomer, unassigned; (+)) [Example 4, (+)-5-Chloro-2-[5-[[(3R or 3S)-1-cyclopropylsulfonylpyrrolidin-3-yl]-methylamino]pyridin-3-yl]-3,3-dimethylisoindol-1-one] |
| 230 | > 30000 | CC1(C)c2cc(Cl)ccc2C(=O)N1c1cncc(NC2CCCN(S(=O)(=O)C3CC3)C2)c1 (single isomer, unassigned; (+)) [Example 7, (+)-5-Chloro-2-[5-[[(3R or 3S)-1-cyclopropylsulfonylpiperidin-3-yl]amino]pyridin-3-yl]-3,3-dimethylisoindol-1-one] |
| 1 | 133 | CN(c1cncc(N2C(=O)c3ccc(Cl)cc3C2(C)C)c1)C1CCN(S(=O)(=O)C2CC2)C1 (single isomer, unassigned; (-)) [Example 5, (−)-5-chloro-2-[5-[[(3S or 3R)-1-cyclopropylsulfonylpyrrolidin-3-yl]-methylamino]pyridin-3-yl]-3,3-dimethylisoindol-1-one] |
| 365 | 19500 | CC1(C)c2cc(Cl)ccc2C(=O)N1c1cncc(NC2CCCN(S(=O)(=O)C3CC3)C2)c1 (single isomer, unassigned; (-)) [Example 8, (−)-5-Chloro-2-[5-[[3S or 3R)-1-cyclopropylsulfonylpiperidin-3-yl]amino]pyridin-3-yl]-3,3-dimethylisoindol-1-one] |
| 9 | 1250 | CC1(C)c2cc(Cl)ccc2C(=O)N1c1cncc(NC2CN(S(=O)(=O)C3CC3)C2)c1 [Example 1, 5-Chloro-2-[5-[(1-cyclopropylsulfonylazetidin-3-yl)amino]pyridin-3-yl]-3,3-dimethylisoindol-1-one] |
| 4 | 450 | Cn1ccnc1C(=O)N1CC(Nc2cncc(N3C(=O)c4ccc(Cl)cc4C3(C)C)c2)C1 [Example 2, 5-Chloro-3,3-dimethyl-2-[5-[[1-(1-methylimidazole-2-carbonyl)azetidin-3-yl]amino]-3-pyridyl]isoindolin-1-one] |
| 0.4 | 18 | CN(c1cncc(N2C(=O)c3ccc(Cl)cc3C2(C)C)c1)C1CN(S(=O)(=O)C2CC2)C1 [Example 3, 5-Chloro-2-[5-[(1-cyclopropylsulfonylazetidin-3-yl)-methylamino]pyridin-3-yl]-3,3-dimethylisoindol-1-one] |
| 1 | 4 | CN(c1cncc(N2C(=O)c3ccc(Cl)cc3C2(C)C)c1)C1CCN(S(=O)(=O)C2CC2)CC1 [Example 6] |
| 7 | 297 | CC1(C)c2cc(Cl)ccc2C(=O)N1c1cncc(NC2CN(C(=O)c3ncccc3Cl)C2)c1 [Example 9, 5-Chloro-2-[5-[[1-(3-chloropyridine-2-carbonyl)azetidin-3-yl]amino]pyridin-3-yl]-3,3-dimethylisoindol-1-one] |
| 11 | 1740 | Cc1ccncc1C(=O)N1CC(Nc2cncc(N3C(=O)c4ccc(Cl)cc4C3(C)C)c2)C1 [Example 10, 5-Chloro-3,3-dimethyl-2-[5-[[1-(4-methylpyridin-3-carbonyl)azetidin-3-yl]amino]pyridin-3-yl]isoindol-1-one] |
| 3 | 1950 | Cc1cncc(C(=O)N2CC(Nc3cncc(N4C(=O)c5ccc(Cl)cc5C4(C)C)c3)C2)c1 [Example 11, 5-Chloro-3,3-dimethyl-2-[5-[[1-(5-methylpyridine-3-carbonyl)azetidin-3-yl]amino]pyridin-3-yl]isoindol-1-one] |
| 18 | 1830 | CC1c2cc(Cl)ccc2C(=O)N1c1cncc(NC2CN(C(=O)c3ncccc3Cl)C2)c1 (stereo not drawn) [Example 12, 5-Chloro-2-[5-[[1-(3-chloropyridine-2-carbonyl)azetidin-3-yl]amino]pyridin-3-yl]-3-methyl-3H-isoindol-1-one] |
| 7 | 4900 | Cc1ccncc1C(=O)N1CC(Nc2cncc(N3C(=O)c4ccc(Cl)cc4C3C)c2)C1 (stereo not drawn) [Example 13, 5-Chloro-3-methyl-2-[5-[[1-(4-methylpyridine-3-carbonyl)azetidin-3-yl]amino]pyridin-3-yl]-3H-isoindol-1-one] |
| 131 | 2890 | CC1c2cc(Cl)ccc2C(=O)N1c1cncc(NC2CN(S(=O)(=O)C3CC3)C2)c1 (stereo not drawn) [Example 14, 5-Chloro-2-[5-[(1-cyclopropylsulfonylazetidin-3-yl)amino]pyridin-3-yl]-3-methyl-3H-isoindol-1-one] |
| 148 | 9560 | O=C1c2ccc(Cl)cc2CCN1c1cncc(NC2CN(S(=O)(=O)C3CC3)C2)c1 [Example 15, 6-Chloro-2-[5-[(1-cyclopropylsulfonylazetidin-3-yl)amino]pyridin-3-yl]-3,4-dihydroisoquinolin-1-one] |
| 10 | 5340 | Cc1ccncc1C(=O)N1CC(Nc2cncc(N3CCc4cc(Cl)ccc4C3=O)c2)C1 [Example 16, 6-Chloro-2-[5-[[1-(4-methylpyridine-3-carbonyl)azetidin-3-yl]amino]pyridin-3-yl]-3,4-dihydroisoquinolin-1-one] |
| 145 | 1910 | O=C(c1ncccc1Cl)N1CC(Nc2cncc(N3CCc4cc(Cl)ccc4C3=O)c2)C1 [Example 17, 6-Chloro-2-[5-[[1-(3-chloropyridine-2-carbonyl)azetidin-3-yl]amino]pyridin-3-yl]-3,4-dihydroisoquinolin-1-one] |
| 9 | 1290 | Cc1cncc(C(=O)N2CC(Nc3cncc(N4CCc5cc(Cl)ccc5C4=O)c3)C2)c1 [Example 18, 6-Chloro-2-[5-[[1-(5-methylpyridine-3-carbonyl)azetidin-3-yl]amino]pyridin-3-yl]-3,4-dihydroisoquinolin-1-one] |
